Measured values reported in US9156836B2, “Tricyclic triazole compounds that modulate HSP90 activity” (Synta Pharmaceuticals Corp., priority 2008, dated 2015).

Tested on: Hsp90
Test: IC50 of compounds of the invention (Table 2; Her2 degradation Method 2, MV-4-11 cell survival, Cell Counting Kit-8)
Type: cell-based, human
Details: text calls it IC50 for Her2 degradation; Method 2: MV-4-11 cells, 72 hours; read-out: IC50 of compounds of the invention for inhibition of Hsp90
Experimental: MV-4-11 cells (20,000 cells/well) were cultured in 96-well plates and maintained at 37° C. for several hours. The cells were treated with a compound of the invention or 17AAG (a positive control) at various concentrations and incubated at 37° C. for 72 hours. Cell survival was measured with Cell Counting Kit-8 (Dojindo Laboratories, Cat. # CK04).

Structure (SMILES)	IC50
NC(=O)c1nnc2n1CCCCc1cc(O)cc(O)c1-2 [Compound 2, 10,12-dihydroxy-5,6,7,8-tetrahydrobenzo[c][1,2,4]triazolo[4,3-a]azocine-3-carboxamide]	12.2 µM
NC(=O)c1nnc2n1CCCc1cc(O)cc(O)c1-2 [Compound 12, 9,11-dihydroxy-6,7-dihydro-5H-benzo[c][1,2,4]triazolo[4,3-a]azepine-3-carboxamide]	87.2 µM
NC(=O)c1nnc2n1CC(Br)C(Br)Cc1cc(O)cc(O)c1-2 (stereo not drawn) [Compound 5, 6,7-dibromo-10,12-dihydroxy-5,6,7,8-tetrahydrobenzo[c][1,2,4]triazolo[4,3-a]azocine-3-carboxamide compound with dibromine (1:1)]	23.4 µM
NC(=O)c1nnc2n1C/C=C\Cc1cc(O)cc(O)c1-2 [Compound 3, (Z)-10,12-dihydroxy-5,8-dihydrobenzo[c][1,2,4]triazolo[4,3-a]azocine-3-carboxamide]	17 µM
NC(=O)c1nnc2n1CC(O)C(O)Cc1cc(O)cc(O)c1-2 (stereo not drawn) [Compound 4, 6,7,10,12-tetrahydroxy-5,6,7,8-tetrahydrobenzo[c][1,2,4]triazolo[4,3-a]azocine-3-carboxamide]	24.3 µM

Tested on: Her2
Test: Degradation of Her2 in BT-474 cells, Western blot (Method 1)
Type: cell-based, human
Details: 0.5 μM, overnight
Experimental: Human high-Her2 breast carcinoma BT474 (HTB-20), SK-BR-3 (HTB-30) and MCF-7 breast carcinoma (HTB-22) from American Type Culture Collection, VA, USA were grown in Dulbecco's modified Eagle's medium with 4 mM L-glutamine and antibiotics (100 IU/ml penicillin and 100 ug/ml streptomycine;GibcoBRL). To obtain exponential cell growth, cells were trypsinized, counted and seeded at a cell density of 0.5×10^6 cells/ml regularly, every 3 days. All experiments were performed on day 1 after cell passage.
BT-474 cells are treated with 0.5 μM, 2 μM, or 5 μM of 17AAG (a positive control) or 0.5 μM, 2 μM, or 5 μM of a compound of the invention overnight in DMEM medium. After treatment, each cytoplasmic sample is prepared from 1×10^6 cells by incubation of cell lysis buffer (#9803, cell Signaling Technology) on ice for 10 minutes. The resulting supernatant used as the cytosol fractions is dissolved with sample buffer for SDS-PAGE and run on a SDS-PAGE gel, blotted onto a nitrocellulose membrane by using semi-dry transfer. Non-specific binding to nitrocellulose is blocked with 5% skim milk in TBS with 0.5% Tween at room temperature for 1 hour, then probed with anti-Her2/ErB2 mAb (rabbit IgG, #2242, Cell Signaling) and anti-Tubulin (T9026, Sigma) as housekeeping control protein. […]

Structure (SMILES)	Degradation of Her2
C=CCNC1=C2C[C@@H](C)C[C@H](OC)[C@H](O)[C@@H](C)/C=C(\C)[C@H](OC(N)=O)[C@@H](OC)/C=C\C=C(/C)C(=O)NC(=CC1=O)C2=O [Compound 17AAG, 17-allylamino-17-demethoxygeldanamycin]	partial degradation
